The record followed here is US11753410B2, “Hormone receptor modulators for treating metabolic mutagenic and fibrotic conditions and disorders” (priority 2017, dated 2023).

For experiment [1], the target named is T1, human Farnesoid X receptor ligand-binding domain/Gal4 DNA binding domain chimera (Homo sapiens, UniProt Q96RI1).
T1 construct: host or cells: FXR-UAS-bla HEK 293T (CellSensor UAS-bla HEK 293T)
T1 sequence (Q96RI1 262-486 limits assumed): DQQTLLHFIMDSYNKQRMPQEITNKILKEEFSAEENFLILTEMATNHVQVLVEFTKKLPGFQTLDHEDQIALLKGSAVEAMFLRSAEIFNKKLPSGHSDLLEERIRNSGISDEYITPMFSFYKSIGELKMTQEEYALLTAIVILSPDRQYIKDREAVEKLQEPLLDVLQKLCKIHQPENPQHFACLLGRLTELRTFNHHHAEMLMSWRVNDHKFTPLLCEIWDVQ
The experiment can be described thus: Cell-based assay of FXR activation (FXR-UAS-bla HEK 293T beta-lactamase reporter). The note with it: for Emax: HEK-293T, read-out: Cellular % Efficacy. As to the method:
FXR activation was measured using a cell line and procedure obtained from Life Technologies (Cat #K1691). […] Activation of FXR by bound ligands results in transcriptional activation of the beta-lactamase reporter gene, which is detected via assay of beta-lactamase activity.
Cells are harvested and diluted into assay medium containing phenol red-free DMEM supplemented with 2% Charcoal-stripped FBS, pyruvate, non-essential amino acids. Cells are then transferred to a 384 well assay plate. Test compounds are dissolved in DMSO and a 3-fold serial dilution series is generated, then further diluted into assay medium. Compounds in assay medium are added to cells in the 384 well plate and allowed to incubate 16 h at 37 C in the presence of 5% CO2.
A FRET-based […] (CCF4) is loaded into cells as its acetomethoxy ester. Intracellular esterases liberate free CCF4, a cephalosporin core linking 7-hydroxycoumarin to fluorescein. In the presence of beta-lactamase activity produced in the presence of FXR agonists, cleavage of CCF4 spatially separates the two dyes and disrupts FRET, so that exciting the coumarin at 409 nm now produces a blue fluorescence signal at 447 nm. The change in FRET signal is plotted against the test compound concentration and fit to a 3-parameter logistical equation.

The target in experiment [2] is T2, ligand binding domain of human FXR (Homo sapiens, UniProt Q96RI1).
T2 construct: purchased Thermofisher (LanthaScreen) PV4833
T2 sequence (Q96RI1 262-486 limits assumed): T1 sequence (Q96RI1 262-486 limits assumed)
The experiment can be described thus: biochemical. The note with it: for Emax: extent of activation relative to GW4064, read-out: Ligand Binding % Efficacy; for EC50: −log EC50, concentration required to produce 50% activation, FRET 520 nm/495 nm, 1 hour at room temperature, read-out: Ligand Binding pEC50 (converted).

As for `O=C(O)c1cc([C@@H]2CCOC2)c2nc(N3C[C@@H]4C[C@H]3C[C@H]4OCc3c(-c4c(Cl)cccc4Cl)nnn3C3CC3)sc2c1` (single isomer, unassigned) [Compound I-66], in experiment [1], the EC50 was 15.8 nM and the Emax stood at 110%. For the same compound, in experiment [2], the Emax is 140% and the EC50 is 15.8 nM.
Take `CS(=O)(=O)CCNC(=O)c1ccc(N2C[C@@H]3C[C@H]2C[C@H]3OCc2c(-c3c(Cl)cccc3Cl)cnn2C2CC2)cc1F` [Compound I-45, 4-[(1S,4S,5R)-5-{[1-cyclopropyl-4-(2,6-dichlorophenyl)-1H-pyrazol-5-yl]methoxy}-2-azabicyclo[2.2.1]heptan-2-yl]-2-fluoro-N-(2-methanesulfonylethyl)benzamide]: in experiment [1], the EC50 is 1000 nM and the Emax came to 92%. For the same compound, in experiment [2], the Emax is 57% and the EC50 is 398 nM.
`O=C(O)CCc1ccc(N2C[C@@H]3C[C@H]2C[C@H]3OCc2c(-c3c(Cl)cccc3Cl)cnn2C2CC2)c(F)c1` [Compound I-44, 3-{4-[(1S,4S,5R)-5-{[1-cyclopropyl-4-(2,6-dichlorophenyl)-1H-pyrazol-5-yl]methoxy}-2-azabicyclo[2.2.1]heptan-2-yl]-3-fluorophenyl}propanoic acid]: the results for the EC50 in experiment [1] and in experiment [2] were less than 31.6 nM and less than 631 nM, respectively. For the same compound, the Emax in experiment [2] came to 96%.
On to `O=C(O)c1ccc(N2C[C@@H]3C[C@H]2C[C@H]3OCc2c(C3CC3)cnn2-c2c(Cl)cccc2Cl)cc1F` [Compound I-2, 4-[(1S,4S,5R)-5-{[4-cyclopropyl-1-(2,6-dichlorophenyl)-1H-pyrazol-5-yl]methoxy}-2-azabicyclo[2.2.1]heptan-2-yl]-2-fluorobenzoic acid], for which, in experiment [1], the EC50 is 2 nM and the Emax came to 104%. In experiment [2], the Emax was determined as 133% and the EC50 was 5.01 nM.
Taken in the same sequence, the figures for `O=C(O)c1ccc(N2C[C@@H]3C[C@H]2C[C@H]3OCc2c(-c3c(Cl)cccc3Cl)cnn2C2CC2)cc1` [Compound I-41, 4-[(1S,4S,5R)-5-{[1-cyclopropyl-4-(2,6-dichlorophenyl)-1H-pyrazol-5-yl]methoxy}-2-azabicyclo[2.2.1]heptan-2-yl]benzoic acid] were 794 nM, 117%, 96% and 316 nM.
Taken in the same sequence, the figures for `O=C(O)c1cc([C@H]2CCOC2)c2nc(N3C[C@@H]4C[C@H]3C[C@H]4OCc3c(-c4c(Cl)cccc4Cl)nnn3C3CC3)sc2c1` (single isomer, unassigned) [Compound I-65] were 10 nM, 108%, 136% and 25.1 nM.
Taken in the same sequence, the figures for `O=C(O)c1cc(C2CCOCC2)c2nc(N3C[C@@H]4C[C@H]3C[C@H]4OCc3c(C4CC4)cnn3-c3c(Cl)cccc3Cl)sc2c1` [Compound I-32, 2-[(1S,4S,5R)-5-{[4-cyclopropyl-1-(2,6-dichlorophenyl)-1H-pyrazol-5-yl]methoxy}-2-azabicyclo[2.2.1]heptan-2-yl]-4-(oxan-4-yl)-1,3-benzothiazole-6-carboxylic acid] were 1 nM, 101%, 128% and 2.51 nM.
Consider `O=C(O)c1cc(C2CCOCC2)c2nc(N3C[C@@H]4C[C@H]3C[C@H]4OCc3c(-c4c(Cl)cccc4Cl)nnn3C3CC3)sc2c1` [Compound I-67, 2-((1S,4S,5R)-5-((1-cyclopropyl-4-(2,6-dichlorophenyl)-1H-1,2,3-triazol-5-yl)methoxy)-2-azabicyclo[2.2.1]heptan-2-yl)-4-(tetrahydro-2H-pyran-4-yl)benzo[d]thiazole-6-carboxylic acid], for which, in experiment [1], the EC50 was 10 nM and the Emax is 111%. In experiment [2], the Emax was determined as 148% and the EC50 is 20 nM.
As to `O=C(NS(=O)(=O)C1CCOCC1)c1ccc(N2C[C@@H]3C[C@H]2C[C@H]3OCc2c(C3CC3)nnn2-c2c(Cl)cccc2Cl)cc1` [Compound I-56, 4-[(1S,4S,5R)-5-{[4-cyclopropyl-1-(2,6-dichlorophenyl)-1H-1,2,3-triazol-5-yl]methoxy}-2-azabicyclo[2.2.1]heptan-2-yl]-N-(oxane-4-sulfonyl)benzamide], in experiment [1], the EC50 was 10 nM and the Emax is 104%. For the same compound, in experiment [2], the Emax was 180% and the EC50 is 2 nM.
For `O=C(O)c1cc(OC2CC2)c2nc(N3C[C@@H]4C[C@H]3C[C@H]4OCc3c(-c4c(Cl)cccc4Cl)nnn3C3CC3)sc2c1` [Compound I-64, 4-cyclopropoxy-2-((1S,4S,5R)-5-((1-cyclopropyl-4-(2,6-dichlorophenyl)-1H-1,2,3-triazol-5-yl)methoxy)-2-azabicyclo[2.2.1]heptan-2-yl)benzo[d]thiazole-6-carboxylic acid], in experiment [1], the EC50 is 10 nM and the Emax stood at 113%. Moreover, in experiment [2], the Emax came out at 172% and the EC50 is 5.01 nM.
Regarding `O=C(O)c1cc(OC2CC2)c2nc(N3C[C@@H]4C[C@H]3C[C@H]4OCc3c(-c4c(Cl)cccc4Cl)cnn3C3CC3)sc2c1` [Compound I-48, 4-cyclopropoxy-2-[(1S,4S,5R)-5-{[1-cyclopropyl-4-(2,6-dichlorophenyl)-1H-pyrazol-5-yl]methoxy}-2-azabicyclo[2.2.1]heptan-2-yl]-1,3-benzothiazole-6-carboxylic acid], in experiment [1], the EC50 was 20 nM and the Emax was determined as 101%. In experiment [2], the Emax amounted to 88% and the EC50 was 39.8 nM.
Consider `O=C(O)c1cc([C@@H]2CCOC2)c2nc(N3C[C@@H]4C[C@H]3C[C@H]4OCc3c(C4CC4)nnn3-c3c(Cl)cccc3Cl)sc2c1` (single isomer, unassigned) [Compound I-59], for which, in experiment [1], the EC50 was 2.51 nM and the Emax was found to be 100%. Besides, in experiment [2], the Emax came out at 137% and the EC50 is 1.58 nM.
Turning to `O=C(O)c1cc(F)c2nc(N3C[C@@H]4C[C@H]3C[C@H]4OCc3c(-c4c(Cl)cccc4Cl)cnn3C3CC3)sc2c1` [Compound I-47, 2-[(1S,4S,5R)-5-{[1-cyclopropyl-4-(2,6-dichlorophenyl)-1H-pyrazol-5-yl]methoxy}-2-azabicyclo[2.2.1]heptan-2-yl]-4-fluoro-1,3-benzothiazole-6-carboxylic acid], in experiment [1], the EC50 was 398 nM and the Emax was determined as 94%. Further, in experiment [2], the Emax was 62% and the EC50 was 251 nM.
Take `O=C(O)c1cc(C2CCCC2)c2nc(N3C[C@@H]4C[C@H]3C[C@H]4OCc3c(-c4c(Cl)cccc4Cl)nnn3C3CC3)sc2c1` [Compound I-69, 4-cyclopentyl-2-[(1S,4S,5R)-5-{[1-cyclopropyl-4-(2,6-dichlorophenyl)-1H-1,2,3-triazol-5-yl]methoxy}-2-azabicyclo[2.2.1]heptan-2-yl]-1,3-benzothiazole-6-carboxylic acid]: the EC50 in experiment [1] is 2.51 nM; in experiment [2], 6.31 nM. Besides, the Emax in experiment [1] came out at 111%; in experiment [2], 168%.
Compound `O=C(NS(=O)(=O)C1CCOCC1)c1ccc(N2C[C@@H]3C[C@H]2C[C@H]3OCc2c(-c3c(Cl)cccc3Cl)cnn2C2CC2)cc1` [Compound I-46, 4-[(1S,4S,5R)-5-{[1-cyclopropyl-4-(2,6-dichlorophenyl)-1H-pyrazol-5-yl]methoxy}-2-azabicyclo[2.2.1]heptan-2-yl]-N-(oxane-4-sulfonyl)benzamide] displayed an EC50 in experiment [1] of less than 31.6 nM. In experiment [2], the Emax is 170% and the EC50 was 100 nM.
